# Data: patent US20200163984A1, “USE OF ISOVALERYL SPIRAMYCIN I, II AND/OR III IN MANUFACTURING MEDICAMENT FOR TREATING AND/OR PREVENTING TUMOR, AND MEDICAMENT” (SHENYANG FUYANG PHARMACEUTICAL TECHNOLOGY CO., LTD., priority 2017, published 2020)
# Assays:
# [1] = test system: transplanted tumor of human cervical cancer cell HeLa; test: HeLa transplanted tumor in nude mice
# Procedure: HeLa cells in a logarithmic growth phase were taken and subjected to a trypan blue exclusion experiment showing that the cell viability was more than 95%, then the cells were subjected to trypsinization, centrifugation, and supernatant removal. Then cell concentration was adjusted to 1×10^7/ml with matrigel, then each nude mouse was inoculated subcutaneously with 0.2 ml of cells at its right armpit and recorded as the first day of inoculation. When the tumor grows to be greater than or equal to 100 mm^3, the mice were randomly divided into 11 groups with 6 mice in each group: a model group, a cyclophosphamide group, isovaleryl spiramycin I groups with doses of 25, 50 and 100 mg/kg, isovaleryl spiramycin II groups with doses of 25, 50 and 100 mg/kg, and isovaleryl spiramycin III groups with doses of 25, 50 and 100 mg/kg. Each group was continuously administered intragastrically for 30 days with a dose of 20 ml/kg. The mice were sacrificed the next day after drug withdrawal and the indicators were tested. The long diameter and short diameter of the tumor, and the body weight of each mouse were recorded every 3 days from drug administration to nude mouse sacrifice.
# The body weight of the nude mice and the long diameter (a) and short diameter (b) of the transplanted tumor were measured every 3 days, and the tumor volume (v), relative tumor volume (RTV) and relative tumor proliferation rate (T/C) are calculated respectively according to the following formulas, wherein V=a×b^2/2; RTV=V/V0 (V0 is the tumor volume before administration, V is the tumor volume before sacrifice), and T/C (%)=treatment group RTV/model control group RTV×100%.
# Each mouse was weighed and sacrificed. After the tumor was completely stripped off from the body of the mouse, the non-tumor tissues such as blood stains and fat were removed to weigh the tumor and calculate the tumor growth inhibition rate. The average tumor weight of each group of mice is used as an indicator of efficacy. Tumor growth inhibition rate (%)=(1−the average tumor weight of the treatment group/the average tumor weight of the model group)×100%.
# [2] = test system: spleen lymphocytes (ConA, LPS stimulation); test: Spleen lymphocyte proliferation activity of Lewis lung cancer tumor-bearing mice; type: in vivo, C57BL/6 mouse; conditions: for lymphocyte activity compared with the control group: Lewis tumor-bearing mice; for B Lymphocyte Proliferation Activity (%) / T Lymphocyte Proliferation Activity (%): n = 6
# Procedure: In the Lewis lung cancer model, the mice inoculated with the tumor were randomly divided into groups with 10 mice in each group the next day of inoculation. The groups included: a model control group, a positive drug cyclophosphamide control group (CTX, 30 mg/kg), isovaleryl spiramycin I groups with doses of 13, 26 and 52 mg/kg; isovaleryl spiramycin II groups with doses of 13, 26 and 52 mg/kg; isovaleryl spiramycin III groups with doses of 13, 26 and 52 mg/kg. Each group was continuously administered intragastrically for 15 days with a dose of 20 ml/kg.
# The serum-free RPMI 1640 medium was placed in a dish, and then the dish was placed on ice. The spleen was aseptically taken and gently ground with a sterile glass slide to prepare a single cell suspension. The single cell suspension was filtered with a double-layer sterile gauze, washed twice with serum-free RPMI1640 medium, and centrifuged at 1,500 rpm for 5 min to remove the obtained supernatant. 2 mL of red blood cell lysate was added to the treated suspension, the mixture was allowed to stand for 2 min, and then 8 mL of RPMI 1640 medium was added, centrifuging was performed at 1,500 rpm for 5 min to remove the obtained supernatant, and then washing was performed twice with the RPMI 1640 medium. […] A single cell suspension was prepared by using a RPMI 1640 medium containing 10% fetal bovine serum.
# The spleen cell suspension was taken, and the cell density was adjusted to 1×10^7/mL. Each mouse was set with: A. a control well: 100 μL of RPMI 1640 medium was added; B. a concanavalin A (ConA) stimulation well: 100 μL (10 mg/L) of concanavalin A (ConA) solution was added; and C. a bacterial endotoxin (LPS) stimulating well: 100 μL (20 mg/L) of bacterial endotoxin (LPS) solution was added. The above cells were added to a 96-well plate, and then 100 μL of spleen cell suspension was added to each of the above wells. After the culture plate was transferred to a saturated humidity condition with a volume fraction of 5% CO2 at 37° C. for incubation for 72 h, 10 μL of MTT solution (5 g/L) was added to each well, and incubation was continued to be performed for 4 hours under the same conditions, then the culture was terminated. 100 μl of a triple solution (SDS 10 g, 10M HCl 0.1 mL, […] 5 mL, diluted with distilled water to 100 mL) was added, and the plate was shaken for 10 min to fully dissolve the crystals. The Optical Density (OD) of each well was measured at 570 nm, and the lymphocyte proliferation rate was calculated. Lymphocyte proliferation rate (%)=[(T-C)/C]×100%, wherein T was the Optical Density of the stimulation well, and C is the Optical Density of the control well.
# [3] = HeLa, high dose (100 mg/kg in method) i.g. 30 days
# [4] = HeLa, low dose (25 mg/kg in method) i.g. 30 days
# [5] = HeLa, medium dose (50 mg/kg in method) i.g. 30 days
smiles,measurement,setting,value
"O=P1(N(CCCl)CCCl)NCCCO1 (centres unmarked) [Cyclophosphamide, cyclophosphamide, reference compound]",Inhibition Rate (%),"[1]; HeLa nude mice, 30 mg/kg",65.74%
same,Relative Tumor Proliferation Rate (T/C),"[1]; HeLa nude mice, 30 mg/kg",36.17%
same,Relative Tumor Volume (RTV),"[1]; HeLa nude mice, 30 mg/kg",6.00 ± 1.35
same,Tumor Weight,"[1]; HeLa nude mice, 30 mg/kg",0.66 ± 0.13 g
same,Body Weight (g) (d1),"[1]; HeLa nude mice, 30 mg/kg, d1",21.10 ± 0.69 g
same,Tumor Volume (mm3) (d 1),"[1]; HeLa nude mice, 30 mg/kg, d1",127.17 ± 35.82 mm3
same,Body Weight (g) (d30),"[1]; HeLa nude mice, 30 mg/kg, d30",19.73 ± 1.22 g
same,Tumor Volume (mm3) (d30),"[1]; HeLa nude mice, 30 mg/kg, d30",724.89 ± 53.90 mm3
same,lymphocyte activity compared with the control group,"[2]; cyclophosphamide, P<0.05",significantly inhibited
same,B Lymphocyte Proliferation Activity (%),[2]; dose 26 mg/kg,11.63 ± 4.68 %
same,T Lymphocyte Proliferation Activity (%),[2]; dose 26 mg/kg,13.24 ± 3.72 %
"CO[C@@H]1[C@@H](O[C@@H]2O[C@H](C)[C@@H](O[C@H]3C[C@@](C)(O)[C@@H](OC(=O)CC(C)C)[C@H](C)O3)[C@H](N(C)C)[C@H]2O)[C@@H](CC=O)C[C@@H](C)[C@@H](O[C@H]2CC[C@H](N(C)C)[C@@H](C)O2)/C=C/C=C/C[C@@H](C)OC(=O)C[C@H]1O [Isovaleryl spiramycin I, isovaleryl spiramycin I]",Inhibition Rate (%),"[1]; HeLa nude mice, 12.5 mg/kg",46.69%
same,Relative Tumor Proliferation Rate (T/C),"[1]; HeLa nude mice, 12.5 mg/kg",69.18%
same,Relative Tumor Volume (RTV),"[1]; HeLa nude mice, 12.5 mg/kg",11.47 ± 4.97
same,Tumor Weight,"[1]; HeLa nude mice, 12.5 mg/kg",1.03 ± 0.59 g
same,Tumor Volume (mm3) (d 1),"[1]; HeLa nude mice, 12.5 mg/kg, d1",112.43 ± 6.87 mm3
same,Tumor Volume (mm3) (d30),"[1]; HeLa nude mice, 12.5 mg/kg, d30",1287.77 ± 552.57 mm3
same,Inhibition Rate (%),"[1]; HeLa nude mice, 25 mg/kg",51.57%
same,Relative Tumor Proliferation Rate (T/C),"[1]; HeLa nude mice, 25 mg/kg",39.57%
same,Relative Tumor Volume (RTV),"[1]; HeLa nude mice, 25 mg/kg",6.56 ± 0.55
same,Tumor Weight,"[1]; HeLa nude mice, 25 mg/kg",0.94 ± 0.48 g
same,Tumor Volume (mm3) (d 1),"[1]; HeLa nude mice, 25 mg/kg, d1",112.78 ± 9.72 mm3
same,Tumor Volume (mm3) (d30),"[1]; HeLa nude mice, 25 mg/kg, d30",738.39 ± 75.32 mm3
same,Inhibition Rate (%),"[1]; HeLa nude mice, 50 mg/kg",65.55%
same,Relative Tumor Proliferation Rate (T/C),"[1]; HeLa nude mice, 50 mg/kg",30.91%
same,Relative Tumor Volume (RTV),"[1]; HeLa nude mice, 50 mg/kg",5.13 ± 0.68
same,Tumor Weight,"[1]; HeLa nude mice, 50 mg/kg",0.67 ± 0.09 g
same,Tumor Volume (mm3) (d 1),"[1]; HeLa nude mice, 50 mg/kg, d1",114.15 ± 6.08 mm3
same,Tumor Volume (mm3) (d30),"[1]; HeLa nude mice, 50 mg/kg, d30",588.18 ± 73.34 mm3
same,Relative Tumor Proliferation Rate (T/C),[1]; [3],30.91%
same,tumor growth inhibition rate,[1]; [3],65.55%
same,Relative Tumor Proliferation Rate (T/C),[1]; [4],69.18%
same,tumor growth inhibition rate,[1]; [4],46.69%
same,tumor volume and relative tumor volume compared with the model group,"[1]; HeLa, low, medium and high doses, P<0.05",significantly lower
same,Relative Tumor Proliferation Rate (T/C),[1]; [5],39.57%
same,tumor growth inhibition rate,[1]; [5],51.57%
same,mouse weight compared with the model group,"[1]; mouse, in vivo",no significant changes
same,Body Weight (g) (d1),"[1]; mouse, in vivo, 12.5 mg/kg",20.72 ± 0.49 g
same,Body Weight (g) (d30),"[1]; mouse, in vivo, 12.5 mg/kg",21.10 ± 0.68 g
same,Body Weight (g) (d1),"[1]; mouse, in vivo, 25 mg/kg",21.07 ± 0.44 g
same,Body Weight (g) (d30),"[1]; mouse, in vivo, 25 mg/kg",21.23 ± 0.73 g
same,Body Weight (g) (d1),"[1]; mouse, in vivo, 50 mg/kg",20.82 ± 0.72 g
same,Body Weight (g) (d30),"[1]; mouse, in vivo, 50 mg/kg",20.95 ± 0.45 g
same,lymphocyte activity compared with the control group,"[2]; 13, 26 and 52 mg/kg, P<0.05, P<0.01",significantly increase
same,B Lymphocyte Proliferation Activity (%),[2]; dose 13 mg/kg,41.63 ± 7.06 %
same,T Lymphocyte Proliferation Activity (%),[2]; dose 13 mg/kg,25.27 ± 8.20 %
same,B Lymphocyte Proliferation Activity (%),[2]; dose 26 mg/kg,44.81 ± 4.41 %
same,T Lymphocyte Proliferation Activity (%),[2]; dose 26 mg/kg,36.24 ± 2.15 %
same,B Lymphocyte Proliferation Activity (%),[2]; dose 52 mg/kg,32.71 ± 1.84%
same,T Lymphocyte Proliferation Activity (%),[2]; dose 52 mg/kg,22.26 ± 4.33%
